# Earlier results as cited in patent US20160280572A1, “POLYMERS FOR FLOCCULATION, DEWATERING AND CONSOLIDATION OF OIL SANDS FLUID FINE TAILINGS, MINE TAILINGS AND SOLID PARTICULATE SUSPENSIONS” (THE GOVERNORS OF THE UNIVERSITY OF ALBERTA, priority 2015, published 2016).
# Details: in water, 20 Celsius
row,SMILES,Solubility [mg/mL]
1,C=CC#N [Acrylonitrile],70
2,C=C(C)C(N)=O [Methacrylamide],202
3,C=CC(=O)OC [methyl acrylate],60
4,C=C(C)C(=O)OC [methyl methacrylate],16
5,C=Cc1ccccc1 [styrene],0.3
6,C=COC(C)=O [vinyl acetate],25

# Same assay, conditions: in water, temperature Not Listed
row,SMILES,Solubility [mg/mL]
1,C=C(C)C(=O)OCCCC [butyl methacrylate],6
